Experimental findings from patent publication US20100197688A1, “EPHA4 RTK INHIBITORS FOR TREATMENT OF NEUROLOGICAL AND NEURODEGENERATIVE DISORDERS AND CANCER” (priority 2008, published 2010) are described below.

The target in one assay is T1, EphA4 kinase (Homo sapiens, UniProt P54764).
T1 construct: His6-TEV-EphA4 (36 KD) (aa. 615-911); His6 (N); TEV cleavage site (N); made in house; host or cells: Sf9 (baculovirus)
T1 sequence (P54764 615-911): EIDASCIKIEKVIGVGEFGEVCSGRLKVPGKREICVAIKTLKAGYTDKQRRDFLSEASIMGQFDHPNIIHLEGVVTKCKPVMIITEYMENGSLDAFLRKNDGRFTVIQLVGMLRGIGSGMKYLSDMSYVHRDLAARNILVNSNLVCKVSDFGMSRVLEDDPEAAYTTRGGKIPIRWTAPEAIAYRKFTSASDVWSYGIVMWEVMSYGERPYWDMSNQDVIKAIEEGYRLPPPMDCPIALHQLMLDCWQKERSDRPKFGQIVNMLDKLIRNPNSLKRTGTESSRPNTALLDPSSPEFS
Nature of the assay: EphA4 kinase enzymatic assay (TR-FRET). Format: biochemical. To be noted: for IC50: 25 μM ATP, recombinant His6-TEV-EphA4 (aa. 615-911); for EphA4 Kinase max inhibition in %: maximum percent inhibition (value in parentheses). How it is done:
Recombinant EphA4 kinase His6-TEV-EphA4 (36 KD) (aa. 615-911) was expressed in Sf9 using baculovirus expression system. Hi-tagged protein was purified by high performance liquid chromatography in two step, using a His Trap HP column and a heparin column. The potency of compounds to inhibit EphA4 kinase phosphorylation was measured by an enzymatic assay based on time resolved fluorescence energy transfer assay format (TR-FRET), using Eu-W1024 anti-pTyr antibody (Perkin Elmer, USA) as a donor and SureLight APC (Perkin Elmer, USA) as an acceptor.
Biotinylated Poly(Glu Tyr) peptide (50 nM) was incubated in 384-well with 25 μM ATP (Sigma) and 10 ng EphA4 kinase in NEBuffer (New England Biolabs) for 60 minutes at rt. The reaction was stopped by 15 mM of EDTA solution for 10 minutes at rt. The detection mixture containing 0.5 nM Eu-W1024 anti-pTyr antibody (Perkin Elmer, USA) and 50 nM SureLight APC (Perkin Elmer, USA) was added to the wells and the plate was incubated for 30 min at rt, while protected from light. Energy transfer signal was measured using a Victor 2V (excitation filter 340, emission filter 615 and 665, delay time 50 μs). Results were expressed as ratios of the absorbencies 665/615.
(§1) Compounds were titrated in duplicate at 11 points concentration starting at 100 μM with a 3 fold increment. Compounds were diluted in DMSO. […] Percentage inhibition for each compound was then calculated based on the value of the 100% inhibition. Concentration-response curves were represented and the concentrations for 50% inhibition (IC50) were calculated.
Background: Time-resolved FRET reads energy transfer from a long-lived donor to a nearby acceptor.

Assay [1] relates to C2C12 mouse myoblast cell line. As to the kind of experiment: Scratch wound assay, C2C12 cells. Format: cell-based. To be noted: for IC50: Mus musculus, C2C12, inflexion point, from AUC of % wound confluence, read-out: Scratch Assay C2C12 Cells IP; for Scratch Assay C2C12 Cells max inhibition in %: value in parentheses. How it is done:
Cell Cultures: C2C12 mouse myoblast cell line (ATCC, VA, USA) was maintained in culture in DMEM media supplemented with 10% fetal bovine serum, 1 mM sodium pyruvate, 1.5 g/L sodium bicarbonate, and 100 IU of penicillin, […] of streptomycin. The cells were then differentiated into myotubes with DMEM supplemented with 2% horse serum for 3 days in 24 well ImageLock™ plate (Essen Instruments, Mich., USA).
Scratch wound assays are commonly used to assess the effects of drugs and drug candidates on the cellular proliferation and/or migration associated with wound closing. The IncuCyte™ system (Essen Instruments, Mich., USA), an automated imaging platform, provides ongoing, real-time images and quantitative data generated throughout the wound-closing process. Cells were maintained in 24 well ImageLock™ (Essen Instruments, Mich., USA) at 37° C. and […], until a confluent monolayer was achieved. A single scratch wound was then created in each well using the Essen Woundmaker™ (Essen Instruments, Mich., USA). It induced a mechanical scratch of the cell monolayer using plastic pipette tips (10-20 μl pipette tips, Eppendorff). Dead cells and other debris produced by the scratch were immediately washed with regular growth media. Cells were then treated with pharmacological agents and were placed into the IncuCyte™ at 37° C. and […], for two to three days. During this time, the wound area within each well was repeatedly imaged at fixed time intervals (every three hours). The IncuCyte™ scratch wound software generates a “wound mask” for each well. An initial wound mask is created for the first image (at time 0) that clearly delineates the border of the wound. A revised mask is generated for each subsequent image to track wound closure. Wound closure can be automatically monitored using the wound confluence (% confluence). Wound confluence can be graphed over time to evaluate the characteristics of wound closing in the presence of pharmacological agents.
The calculation of the area under the curve (AUC) of the % confluence function of the time gave a quantitative measurement of compounds efficacy on the scratch wound closing. Compounds were titrated in quadruplicate at 5 points concentration starting at […] with a two-fold increment. The percentage of inhibition was calculated from the AUCs at each dose in comparison with the AUCs of the control wells (1% DMSO). Concentration-response curves were represented and the concentrations at the inflexion point (IP) were calculated. The maximum effect was given by the maximum percent inhibition.

Another assay addresses T2, Jak2 (Homo sapiens, UniProt O60674).
T2 construct: purchased Cell Signaling, USA
Nature of the assay: Jak2 kinase counterscreen enzymatic assay (TR-FRET). Format: biochemical. Particulars: 5 μM ATP. How it is done: (§2) Counterscreen assays were developed for the tyrosine kinases src kinase and jak2 kinase, with a format essentially identical to the EphA4 kinase TR-FRET format. Jak2 (50 ng) (Cell Signaling, USA) was incubated with 0.5 μM of biotinylated FLT3 peptide (Cell Signaling, USA) in presence of 5 μM of ATP (Sigma). P60c-src (10 U/well) (Upstate biotechnology, USA) was incubated with biotinylated Poly(Glu Tyr) peptide (100 nM) in presence of 0.5 μM of ATP. The enzymatic reaction was stopped after 60 min by adding 15 mM EDTA. The detection reaction and energy transfer signal measurements were similar to those previously described. Results were expressed as ratios of the absorbencies 665/615.
as §1
In general terms: Counterscreens check selectivity or assay interference.

The next assay has as its target T3, P60c-src (Homo sapiens, UniProt P12931).
T3 construct: purchased Upstate biotechnology, USA
As to the kind of experiment: Src kinase counterscreen enzymatic assay (TR-FRET). The assay is classed as biochemical. To be noted: 0.5 μM ATP. The procedure:
as §2, §1

T3 sequence (P12931 whole entry): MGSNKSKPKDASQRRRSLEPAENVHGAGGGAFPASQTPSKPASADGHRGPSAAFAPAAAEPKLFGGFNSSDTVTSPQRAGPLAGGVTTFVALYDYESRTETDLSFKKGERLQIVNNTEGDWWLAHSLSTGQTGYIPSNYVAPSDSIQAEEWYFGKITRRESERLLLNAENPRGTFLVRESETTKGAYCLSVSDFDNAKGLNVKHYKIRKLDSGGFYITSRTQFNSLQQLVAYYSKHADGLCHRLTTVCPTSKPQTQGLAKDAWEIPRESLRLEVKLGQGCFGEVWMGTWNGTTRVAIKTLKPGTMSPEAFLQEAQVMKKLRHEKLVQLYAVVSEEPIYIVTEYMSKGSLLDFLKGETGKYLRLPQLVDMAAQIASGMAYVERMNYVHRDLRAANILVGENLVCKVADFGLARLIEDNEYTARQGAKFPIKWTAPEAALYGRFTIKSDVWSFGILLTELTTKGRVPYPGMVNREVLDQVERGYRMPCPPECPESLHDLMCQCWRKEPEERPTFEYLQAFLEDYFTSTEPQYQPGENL
T2 sequence (O60674 whole entry, species assumed): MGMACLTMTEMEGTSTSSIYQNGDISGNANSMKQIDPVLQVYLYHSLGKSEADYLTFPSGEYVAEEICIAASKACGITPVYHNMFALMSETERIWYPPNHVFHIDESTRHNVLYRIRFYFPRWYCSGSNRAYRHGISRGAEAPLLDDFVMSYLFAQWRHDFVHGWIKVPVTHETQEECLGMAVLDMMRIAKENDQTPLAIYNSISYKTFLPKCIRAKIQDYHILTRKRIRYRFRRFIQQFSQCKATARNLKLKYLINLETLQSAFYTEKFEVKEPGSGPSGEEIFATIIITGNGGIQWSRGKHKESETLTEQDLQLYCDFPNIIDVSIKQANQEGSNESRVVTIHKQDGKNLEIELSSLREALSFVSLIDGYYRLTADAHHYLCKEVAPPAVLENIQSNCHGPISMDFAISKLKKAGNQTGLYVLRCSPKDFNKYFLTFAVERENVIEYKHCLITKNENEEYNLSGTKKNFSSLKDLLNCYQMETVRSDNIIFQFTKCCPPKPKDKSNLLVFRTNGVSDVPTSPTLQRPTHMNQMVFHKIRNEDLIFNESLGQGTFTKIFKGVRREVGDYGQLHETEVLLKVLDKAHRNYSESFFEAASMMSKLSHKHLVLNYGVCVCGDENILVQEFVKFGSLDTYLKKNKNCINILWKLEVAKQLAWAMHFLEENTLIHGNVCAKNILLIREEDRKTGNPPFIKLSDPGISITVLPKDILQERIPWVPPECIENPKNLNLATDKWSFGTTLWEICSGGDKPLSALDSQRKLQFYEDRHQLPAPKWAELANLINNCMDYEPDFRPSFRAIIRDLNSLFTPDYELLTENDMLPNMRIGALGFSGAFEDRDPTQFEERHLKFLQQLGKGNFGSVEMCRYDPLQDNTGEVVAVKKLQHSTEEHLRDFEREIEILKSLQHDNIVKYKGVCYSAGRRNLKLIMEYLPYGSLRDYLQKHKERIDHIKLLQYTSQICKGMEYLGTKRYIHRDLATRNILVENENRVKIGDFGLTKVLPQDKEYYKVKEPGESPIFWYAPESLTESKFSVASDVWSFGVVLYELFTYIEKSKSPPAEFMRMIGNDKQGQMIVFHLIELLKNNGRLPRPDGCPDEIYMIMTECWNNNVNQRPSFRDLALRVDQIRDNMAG

With `Cc1ccc(NC(=O)c2cccc(C(F)(F)F)c2)cc1-c1ccc(-n2cccn2)cc1` [Example 120], the IC50 was 1.59 µM on EphA4 kinase, 3.1 µM in assay [1], over 100 µM at Jak2 and over 100 µM at P60c-src. Moreover, the “EphA4 Kinase max inhibition in %” value at EphA4 kinase was determined as 70%. In addition, the “Scratch Assay C2C12 Cells max inhibition in %” value in assay [1] turned out to be 43%.
On to `Cc1ccc(NC(=O)c2cccc(C(F)(F)F)c2)cc1-c1ccc(O)c(NC=O)c1` [Example 133], for which the IC50 was 4.8 µM on EphA4 kinase, 6 µM in assay [1], over 100 µM at Jak2 and over 100 µM on P60c-src. Also, the “EphA4 Kinase max inhibition in %” value at EphA4 kinase is 93%. Besides, in assay [1], the “Scratch Assay C2C12 Cells max inhibition in %” value amounted to 42%.
